# Test results from PubChem BioAssay (NCI).
#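 These data come from cells grown in 96-well plates and exposed to compound for 48 hours at five concentrations. Here, GI50 denotes the concentration required for 50% inhibition of growth. TGI is the concentration that stops growth completely.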
# Assays:
# Assay in all cases: growth of human tumour cells (NCI), 48 h
# [1] = system: OVCAR-8 ovarian
# [2] = system: COLO 205 colon
# [3] = system: KM12 colon
# [4] = system: NCI-H23 lung
# [5] = system: CAKI-1 renal
# [6] = system: DU-145 prostate
# [7] = system: HL-60(TB) leukemia
# [8] = system: MOLT-4 leukemia
# [9] = system: OVCAR-5 ovarian
# [10] = system: A498 renal
# [11] = system: HOP-62 NSCLC
# [12] = system: HCT-15 colon
# [13] = system: T-47D breast
# [14] = system: A549 NSCLC
# [15] = system: SK-MEL-2 melanoma
# [16] = system: IGROV1 ovarian
# [17] = system: MDA-MB-231 breast
# [18] = system: HCT-116 colon
# [19] = system: K-562 leukemia
# [20] = system: EKVX NSCLC
# [21] = system: PC-3 prostate
# [22] = system: TK-10 renal
# [23] = system: U251 CNS
# [24] = system: SNB-19 CNS
# [25] = system: 786-0 renal
# [26] = system: SK-MEL-5 melanoma
# [27] = system: HOP-92 NSCLC
# [28] = system: LOX IMVI melanoma
# [29] = system: SW-620 colon
# [30] = system: UACC-257 melanoma
# [31] = system: NCI-H460 lung
# [32] = system: SR leukemia
# [33] = system: ACHN renal
# [34] = system: SK-OV-3 ovarian
# [35] = system: SN12C renal
# [36] = system: MDA-MB-435
# [37] = system: NCI-H522 lung
# [38] = system: HT29 colon
# [39] = system: SNB-75 CNS
# [40] = system: OVCAR-3 ovarian
# [41] = system: MALME-3M melanoma
# [42] = system: SF-268 CNS
# [43] = system: MDA-MB-468 breast
# [44] = system: SF-295 CNS
# [45] = system: UO-31 renal
# [46] = system: CCRF-CEM leukemia
# [47] = system: RXF 393 renal
# [48] = system: SF-539 CNS
# [49] = system: SK-MEL-28 melanoma
# [50] = system: NCI-H226 lung
# [51] = system: HS 578T breast
# [52] = system: HCC-2998 colon
# [53] = system: BT-549 breast
# [54] = system: MCF7 breast
# [55] = system: UACC-62 melanoma
# [56] = system: M14 melanoma
# [57] = system: OVCAR-4 ovarian
# [58] = system: RPMI-8226 leukemia
smiles,measurement,setting,value
N#Cc1c(NC(=O)c2ccc(C(F)(F)F)cc2)sc2c1CCC(O)=C2,GI50,[1],5.71 µM
same,TGI,[1],22.3 µM
same,GI50,[2],13.4 µM
same,TGI,[2],30 µM
same,GI50,[3],3.16 µM
same,TGI,[3],13.1 µM
same,GI50,[4],4.91 µM
same,TGI,[4],22 µM
same,GI50,[5],3.05 µM
same,TGI,[5],16 µM
same,GI50,[6],6.53 µM
same,TGI,[6],22 µM
same,GI50,[7],2.77 µM
same,TGI,[7],> 100 µM
same,GI50,[8],4.43 µM
same,TGI,[8],> 100 µM
same,GI50,[9],5.38 µM
same,TGI,[9],25 µM
same,GI50,[10],14 µM
same,TGI,[10],34.2 µM
same,GI50,[11],4.49 µM
same,TGI,[11],17.8 µM
same,GI50,[12],3.51 µM
same,TGI,[12],15.8 µM
same,GI50,[13],3.13 µM
same,TGI,[13],24.9 µM
same,GI50,[14],6.36 µM
same,TGI,[14],24.1 µM
same,GI50,[15],3.21 µM
same,TGI,[15],11.7 µM
same,GI50,[16],5.23 µM
same,TGI,[16],19 µM
same,GI50,[17],2.96 µM
same,TGI,[17],14.3 µM
same,GI50,[18],3.49 µM
same,TGI,[18],13.4 µM
same,GI50,[19],2.23 µM
same,TGI,[19],> 100 µM
same,GI50,[20],7.4 µM
same,TGI,[20],31.4 µM
same,GI50,[21],6.12 µM
same,TGI,[21],> 100 µM
same,GI50,[22],13.3 µM
same,TGI,[22],50.3 µM
same,GI50,[23],4.13 µM
same,TGI,[23],16.5 µM
same,GI50,[24],7.46 µM
same,TGI,[24],24.3 µM
same,GI50,[25],5.53 µM
same,TGI,[25],22.1 µM
same,GI50,[26],2.71 µM
same,TGI,[26],9.4 µM
same,GI50,[27],2.85 µM
same,TGI,[27],21.9 µM
same,GI50,[28],4.56 µM
same,TGI,[28],16.8 µM
same,GI50,[29],3.13 µM
same,TGI,[29],14 µM
same,GI50,[30],6.64 µM
same,TGI,[30],29.4 µM
same,GI50,[31],3.53 µM
same,TGI,[31],14.2 µM
same,GI50,[32],1.48 µM
same,TGI,[32],> 100 µM
same,GI50,[33],6.81 µM
same,TGI,[33],27.9 µM
same,GI50,[34],4.36 µM
same,TGI,[34],20 µM
same,GI50,[35],4.08 µM
same,TGI,[35],16.5 µM
same,GI50,[36],1.23 µM
same,TGI,[36],3.31 µM
same,GI50,[37],2.53 µM
same,TGI,[37],12 µM
same,GI50,[38],4.61 µM
same,TGI,[38],18.3 µM
same,GI50,[39],1.12 µM
same,TGI,[39],6.1 µM
same,GI50,[40],3.24 µM
same,TGI,[40],12 µM
same,GI50,[41],2.29 µM
same,TGI,[41],12 µM
same,GI50,[42],3.87 µM
same,TGI,[42],20.7 µM
same,GI50,[43],2.12 µM
same,TGI,[43],8.11 µM
same,GI50,[44],4.08 µM
same,TGI,[44],16.7 µM
same,GI50,[45],2.12 µM
same,TGI,[45],16.4 µM
same,GI50,[46],3.21 µM
same,TGI,[46],> 100 µM
same,GI50,[47],2.38 µM
same,TGI,[47],12.7 µM
same,GI50,[48],2.1 µM
same,TGI,[48],6.92 µM
same,GI50,[49],6.17 µM
same,TGI,[49],25.8 µM
same,GI50,[50],4.03 µM
same,TGI,[50],19.2 µM
same,GI50,[51],2.32 µM
same,TGI,[51],14.1 µM
same,GI50,[52],7.46 µM
same,TGI,[52],21.2 µM
same,GI50,[53],2.82 µM
same,TGI,[53],19.3 µM
same,GI50,[54],3.03 µM
same,TGI,[54],21.7 µM
same,GI50,[55],3.23 µM
same,TGI,[55],16.2 µM
same,GI50,[56],3.6 µM
same,TGI,[56],15.8 µM
same,GI50,[57],7.47 µM
same,TGI,[57],35 µM
same,GI50,[58],3.53 µM
same,TGI,[58],> 100 µM
